Measurements published in patent US20180311342A1, “IMMUNOSTIMULATING AGENT” (AJINOMOTO CO., INC., priority 2017, published 2018).

Experiments:
[1] = test system: anti-OVA-specific IgG1 and IgG2a subclass antibody / anti-OVA-specific IgE antibody; assay: Effective Index: index for adjuvant enhancing antibody production and not inducing allergy (IgG1 or IgG2a / IgE, relative to Addavax = 1.0); type: in vivo, BALB/c mice
Description: The serum samples obtained in Experimental Example 1 were evaluated for utilizability as an adjuvant to cause enhancement of antibody production by each compound and not induce allergy based on the following index (Effective Index). Whether each compound can be used as an adjuvant to cause enhancement of antibody production and not induce allergy was also evaluated in the same manner in the following Experimental Examples 2-10.
It is a problem that Addavax™ potentiates antigen-specific antibody production but induces allergy. Therefore, the index for adjuvant not inducing allergy (Effective Index) was defined as follows, and an index of each administration group in Experimental Examples 1-10 was calculated. That is, a value obtained by dividing mean of the concentrations of anti-OVA-specific IgG1 subclass antibody and anti-OVA-specific IgG2a subclass antibody of each group by mean of anti-OVA-specific IgE antibody concentration of each group was relatively compared with a value obtained by dividing mean of the concentrations of anti-OVA-specific IgG1 subclass antibody and anti-OVA-specific IgG2a subclass antibody of Addavax™ administration group by mean of anti-OVA-specific IgE antibody concentration of Addavax™ administration group as 1.0.

[2] = test system: anti-OVA-specific IgE antibody; assay: Allergy inducing activity test: anti-OVA-specific IgE antibody in serum of OVA-immunized mice (DS mouse IgE ELISA (OVA) kit); type: in vivo, BALB/c mice; conditions: for anti-OVA-specific IgE antibody production: Experimental Example 4: after secondary immunization, compound 0.256 μmol dissolved in saline (no αCD)
[3] = after secondary immunization, compound in 5% αCD-added saline, IgG1/IgE and IgG2a/IgE production amounts relative to Addavax administration group (1.0)

| Structure (SMILES) | Effective Index ([1]; Experimental Example 4: after secondary immunization, compound dissolved in saline, IgG1/IgE and IgG2a/IgE relative to Addavax administration group (1.0)) | Effective Index [1, 3] | anti-OVA-specific IgE antibody production ([2]; compared to Addavax administration group) | anti-OVA-specific IgE antibody production ([2]; compared to OVA single administration group) | allergy inducing activity as compared to Addavax ([2]; Experimental Example 4: conclusion from IgE after secondary immunization, compound dissolved in saline) |
| --- | --- | --- | --- | --- | --- |
| CCCCCCCCCCCCCCCC(=O)N[C@@H](CCCNC(=N)N)C(=O)NCCCCCCCCCCCC.Cl [SZ111, N-[(1S)-1-(dodecylcarbamoyl)-4-guanidino-butyl]hexadecanamide hydrochloride] | > 1.0 | > 1.0 | lower | significantly increased | may have a lower allergy inducing activity |
| CCCCCCCCCCCCCCCC(=O)N[C@@H](CCCCN)C(=O)NCCCCCCCCCCCC.Cl [SZ153, N-[(1S)-5-amino-1-(dodecylcarbamoyl)pentyl]hexadecanamide hydrochloride] | – | > 1.0 | – | – | – |
